Experimental data: patent publication EP0719546B1, “LUV comprising saturated phospholipids and method of making the same” (THE LIPOSOME COMPANY, INC., priority 1987, dated 1988)
Structures can show the parent of a compound that is named as a salt.

What was measured:
[1] = Drug uptake into EPC large unilamellar vesicles with proton gradient; type: physicochemical; details: 300 mM citric acid pH 4.0 inside, pH 7.5 outside; for encapsulation by the vesicles: EPC LUVs (100 nm filters), 25°C
Description: Egg phosphatidylcholine (15 mg) was dispersed in 2 ml of 300 mM citric acid, pH 4.0 and the resulting MLVs frozen in liquid nitrogen and thawed in warm water (approximately 35°C) a total of five times. The lipid was then extruded 10 times through two stacked 100 nm pore size polycarbonate filters using the LUVET procedure. A proton gradient was created by passage of the vesicles over a Sephadex G-50 (fine) column (1.5 cm x 10 cm) preequilibrated with 300 mM NaCl, 20 mM HEPES, pH 7.5. An aliquot of the large unilamellar vesicles eluted from the column was diluted in 300 mM NaCl, […], pH 7.5 to a lipid concentration of 0.75 mgml^-1 in a total volume of 2 ml and then daunorubicin (113 ug) added from a stock solution (5.64 mgml^-1) in distilled water. The mixture was incubated at room temperature (25°C) and at intervals of 2, 10, 20, 30, 60 and 120 minutes, 100 ul aliquots were centrifuged through 1 ml "minicolumns" of Sephadex G-50 (fine) to remove any unencapsulated daunorubicin from the vesicles. The concentration of entrapped daunorubicin was determined from its absorbance at 500 nm in a Shimadzu UV-265 spectrophotometer following solubilization of the vesicles in 1% Triton X-100. Lipid was quantified by liquid scintillation counting using tracer levels of ^3H-DPPC. In excess of 98% of the daunorubicin was encapsulated by the vesicles giving a drug to lipid molar ratio of 1:5.
The materials and procedures of Example 30 were employed except that epirubicin (116 ug) was addded to the vesicle suspension (2 ml) from a stock solution (5.8 mgml^-1). Epirubicin uptake was quantified from its absorbance at 500 nm following solubilization of the vesicles in 1% Triton X-100. Epirubicin encapsulation by the vesicles was in excess of 98% giving a drug to lipid molar ratio of 1:5.
The materials and procedures of Example 30 were employed except that mitoxanthrone (103 ug) was added to the vesicle suspension (2 ml) from a stock solution (2 mgml^-1). Mitoxantrone uptake was quantified from its absorbance at 670 nm following solubilization of the vesicles in 2% Triton X-100. Mitoxantrone encapsulation by the vesicles was in excess of 98% giving a drug to lipid molar ratio of 1:5.
The materials and procedures of Example 30 were employed except that cisplatin (200 uM) was combined with the liposome suspension.

[2] = In vitro release of doxorubicin from liposomes under dialysis; type: physicochemical; details: vesicles containing 300 mM citrate (pH 4.0), drug to lipid (wt/wt) ratio 1:10 to 1:3, over 24 hours
Description: The materials and-procedures of Example 6 were employed to determine the in vitro stability of the liposome-doxorubicin preparations. Release experiments were performed as follows: 10-fold dilute liposome samples were dialyzed for 24 hours against 1000 volumes of 20 mM HEPES, 150 mM NaCl (pH 7.5) at 37°C. At 1, 2, 4, 8, 10, and 24 hours post-preparation, a 150 ul aliquot was removed and the entrapped doxorubicin was determined.
EPC/cholesterol (55/45 mole ratio) was dried from chloroform to a thin film on a 500 ml capacity round bottom flask (400 mg total lipid). The film was hydrated with 4.0 ml of 300 mM citric acid at pH 4.0, forming MLVs. These MLVs were extruded through 2 stacked 0.22 um Nucleopore membrafil filters followed by extrusion 10 times through a 0.1 um Nucleopore membrafil (tortuous path) filter. To 1.0 ml of the resulting filtrate sample was added 275 ul of 1M Na2CO3, which raised the exterior pH to 8.3. An aliquot (0.6 ml) was heated for 3 minutes at 60°C, as was a 10 mg sample of doxorubicin. The liposome aliquot was added to the 10 mg doxorubicin and heated at 60°C for 5 minutes. The sample was divided into 2 parts. […] At 1 hour, a 150 ul aliquot was removed and analyzed for doxorubicin and lipid phosphate as previously described, after passage down a 1.0 ml Sephadex column equilibrated in the respective buffer. […]

[3] = Doxorubicin entrapment (trapping) efficiency, transmembrane pH gradient loading; type: physicochemical
Description: In order to determine whether an ionizable antineoplastic agent will load into liposomes in response to a transmembrane pH gradient, EPC-containing liposomes are made (about 1.0 mM EPC) with a ^3H-DPPC tracer and with a relatively acidic or basic internal medium such as 300 mM citric acid at about pH 4.0. These liposomes are extruded about 10 times according to the LUVET procedure through 2 100 nm filters, followed by adjustment of the external pH to a relatively basic or acidic pH, for example, sodium carbonate, at about pH 11.0. Following the formation of the pH gradient, the agent to be loaded, spiked with a radioactive isotope of the agent, is admixed with the liposomes to about 200 uM (per 1.0 mM lipid used). The liposomes are separated from free, unentrapped agent on G50-M Sephadex minicolumns at 500 X g for 3 minutes into 13 X 100 mm tubes, and radioactivity counted in a scintillation counter. Uptake of the drug in nmoles per umole of lipid is then plotted over incubation time. One hundred percent of the available doxorubicin is taken up into liposomes under these conditions.
In the case of doxorubicin, commercially available forms, such as powdered, solid, and methylparaben-containing forms (Adriamycin R.D.F., Adria Laboratories, Inc., Columbus, Ohio) may be used in the invention. When the methylparaben-containing form is employed, an aqueous solution such as saline may be added to that form, thereby dissolving it, followed by the admixing of this suspension with the liposomes which have the transmembrane pH gradient across their bilayers. Such admixing at 60°C for about 10 minutes results in more than about 98% encapsulation of the doxorubicin.
To determine entrapment efficiency of the liposome preparations, free and liposome encapsulated doxorubicin was monitored spectrophotometrically employing a Shimadzu UV-160 spectrophotometer as follows: the liposomal-doxorubicin samples were diluted with 20 mM Hepes, 250 mM NaCl (pH 7.5) to achieve approximate doxorubicin concentrations between 0.05-0.10 mM. The following sequence of measurements was made; (1) the absorbance at 600 nm of the diluted sample was adjusted to zero; (2) the sample was alkalinized to pH 10.5 with 1.0 N NaOH (0.02 ml/1.0 ml of sample) and the absorbance at 600 nm was recorded within 2 minutes; (3) the spectrophotometer was zeroed against a 0.2% Triton X-100 solution, and (4) the absorbance at 600 nm of the liposomal-doxorubicin sample to which Triton X-100 had been added (0.02 ml 20% Triton X-100 wt./wt./1.0 ml of sample) was determined. Free:total doxorubicin ratios were calculated as the absorbance at 600 nm upon NaOH addition divided by the absorbance after Triton X-100 addition.
To relate the pH-dependent spectral response technique to actual free and trapped drug levels, vesicle entrapped doxorubicin was determined as follows: A small aliquot of the liposomal-doxorubicin solution was passed down Sephadex G-50 gel columns equilibrated in 20 mM Hepes, 150 mM NaCl (pH 7.5) to separate free from liposome-associated drug. The liposome-containing eluant as well as aliquots of the original solutions were assayed for phospholipid and doxorubicin by phosphorus analysis and optical density at 480 nm, respectively as previously described in Mayer et al., (1986), Biochim Biophys. Acta., 857:123.
The materials and procedures of Example 3 were employed, but entrapment efficiency of liposome encapsulated doxorubicin was monitored by comparison of the color resulting from addition of an aliquot (0.2 ml) of the liposomes to 1.0 N NaOH to a color chart.
After completion of the entrapment procedure according to Example 6, 20 ul of the doxorubicin-liposomes were diluted to 200 ul with 20 mM HEPES, 150 mM NaCl (pH 7.5). An aliquot of this diluted sample (20 ul) was assayed for lipid phosphate by the procedure of Bartlett, J. Biol. Chem. 1959, 234:466-468. […]

[4] = tested on: SC-115 cells; assay: SC-115 tumor growth in Shinogi mice; type: in vivo, Male Shinogi mice; details: SC-115 tumor, 3.25, 6.5 and 13 mg/kg i.v., 3 injections at seven day intervals
Description: Male Shinogi mice (25-40g, 9 per group) were injected subcutaneously with 1X10^5 SC-115 cells obtained from a primary tumor in previously inoculated mice. Tumor growth was monitored by palpation and tumor measurements with a vernier caliper. Upon growth of the tumor to 0.5-2.0 g (tumor weight = [width^2 x length]/2, measurements in mm), mice were administered liposomal doxorubicin dose of 13 mg/kg i.v. at seven day intervals (3 injections of the indicated dose). Tumor growth was monitored 3 times weekly for 50 days post first treatment or until the tumor weight exceeded 9 g at which time the animal was sacrificed. Treatment doses were based on the initial animal weights prior to tumor inoculation.
The above procedure was repeated and the mice were administered saline or empty liposomes (administered at a dose equivalent to that given for a liposomal doxorubicin dose of 13 mg/kg).
The above procedure was repeated at 3.25 mg/kg dose and 6.5 mg/kg dose for free and liposomal doxorubicin.

[5] = Vincristine trapping efficiency, pH gradient loading; type: physicochemical; details: DSPC/cholesterol (55:45) liposomes, 300 mM citric acid pH 4.0, 200 nm filter, drug to lipid approximately 0.17:1, external pH about 7.0, 60°C for 10 minutes
Description: These MLVs (100 mg total lipid/ml buffer) were extruded 10 times through a 200 nm pore size polycarbonate filter in a thermojacket LUVET heated to 60°C. Liposomes were added to a solution of 1 mg/ml vincristine sulfate (Oncovin, available from Eli Lilly and Co., Indianapolis, IN) to achieve a drug to total lipid weight ratio of approximately 0.17:1. To this was added a sufficient amount of 1.0 M Na2HPO4 to bring the pH of the solution to about 7.0. The samples were then heated at 60°C for 10 minutes at which time the drug was encapsulated inside the liposomes at a trapping efficiency in excess of 98%.
The above was repeated using EPC/cholesterol and HSPC/cholesterol.

[6] = tested on: ascites L1210 tumor line; assay: Antitumor activity of vincristine, L1210 lymphocytic leukemia model; type: in vivo, DBA/2J mice; details: L1210 model in mice
Description: The antitumor activity of free and liposomal vincristine was assessed employing an L1210 lymphocytic leukemia model. DBA/2J mice (6 mice per group) were injected i.p. with 1 X 10^6 L1210 cells derived from the ascites fluid of a previously infected mouse. Liposomal vincristine made according to Example 27 was administered i.v. at various times after tumor innoculation and animal weights as well as mortality rates were monitored.
The above example was repeated by administering free vincristine and empty liposomes.

Structure (SMILES): COc1cccc2c1C(=O)c1c(O)c3c(c(O)c1C2=O)C[C@@](O)(C(=O)CO)C[C@@H]3O[C@H]1C[C@H](N)[C@@H](O)[C@H](C)O1 [Epirubicin, epirubicin]
- encapsulation by the vesicles [1]: > 98%

Structure (SMILES): COc1cccc2c1C(=O)c1c(O)c3c(c(O)c1C2=O)C[C@@](O)(C(=O)CO)C[C@@H]3O[C@H]1C[C@H](N)[C@H](O)[C@H](C)O1 [doxorubicin]
- drug released [2]: less than 5%
- available doxorubicin taken up into liposomes ([3]; EPC liposomes (about 1.0 mM), 300 mM citric acid pH 4.0 inside, 100 nm filters, external sodium carbonate, about 200 uM agent): One hundred
- trapping efficiency ([3]; Example 14: HSPC/cholesterol 2.4:1 weight ratio, 300 mM citric acid pH 4.0, 0.2 um filter, external pH 8.5, 15 minutes at 60°C, color test): greater than 95%
- entrapment efficiency ([3]; Example 21: DSPC liposomes, 300 mM citric acid pH 4.0, 0.2 um filters, external pH 7.8, drug to lipid ratio 0.25:1, 60°C for 5 minutes): greater than 95%
- drug entrapped by the liposomes ([3]; Example 26: EPC/cholesterol (55:45 mol ratio), methods of Example 2): Greater than 98%
- encapsulation of the doxorubicin ([3]; methylparaben-containing form (Adriamycin R.D.F.) dissolved in saline, admixed with pH gradient liposomes at 60°C for about 10 minutes): more than 98%
- entrapment ([3]; vesicles containing 300 mM citrate (pH 4.0), drug to lipid (wt/wt) ratio between 1:10 and 1:3): about 100%
- trapping efficiencies ([3]; vesicles, drug to lipid ratios (wt/wt) 0.1:1 to 0.3:1, neutral, negatively charged or saturated phospholipids, varying cholesterol): about 100%
- tumor growth inhibition [4]: dose dependent tumor growth inhibition

Structure (SMILES): COc1cccc2c1C(=O)c1c(O)c3c(c(O)c1C2=O)C[C@@](O)(C(C)=O)C[C@@H]3O[C@H]1C[C@H](N)[C@H](O)[C@H](C)O1 [daunorubicin]
- encapsulation by the vesicles [1]: > 98%

Structure (SMILES): N.N.[Cl][Pt][Cl] [Cisplatin, cisplatin]
- accumulation into liposomes by the transmembrane pH gradient ([1]; EPC LUVs, 200 uM drug): not accumulated

Structure (SMILES): O=C1c2c(O)ccc(O)c2C(=O)c2c(NCCNCCO)ccc(NCCNCCO)c21 [Mitoxantrone, mitoxanthrone]
- encapsulation by the vesicles [1]: > 98%

Structure (SMILES): CC[C@]1(O)C[C@H]2CN(CCc3c([nH]c4ccccc34)[C@@](C(=O)OC)(c3cc4c(cc3OC)N(C=O)[C@H]3[C@@](O)(C(=O)OC)[C@H](OC(C)=O)[C@]5(CC)C=CCN6CC[C@]43[C@@H]65)C2)C1 [vincristine, vincristine sulfate]
- trapping efficiency [5]: > 98%
- efficacy against the ascites L1210 tumor line [6]: no efficacy
